# pIC50: −log10 of the molar value.
# How the values were obtained:
# [1] = test system: SKBR3 (PI3Kα-Wild Type) cell line; assay: HTRF phospho-AKT(S473) cell assay in SKBR3 cells; type: cell-based, human; details: Homo sapiens, SK-BR-3, 2 hours compound incubation, PDGF-BB stimulated
# Summary of the method: (§1)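 pAKT(S473) in lysates read by HTRF after a 2 h, 37 °C compound exposure (12-point 1:3 series, max 0.5% DMSO). SKBR3 (wild type, top 10 μM) received 70 ng/ml PDGF-BB during the final 15 min; T47D (H1047R, top 5 μM) was unstimulated. IC50 values derived from the dose-response.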
# [2] = test system: T47D (PI3Kα-H1047R) cell line; assay: HTRF phospho-AKT(S473) cell assay in T47D cells; type: cell-based, human; details: Homo sapiens, 2 hours compound incubation
# Summary of the method: as §1
# [3] = SKBR3 (PI3Kα-Wild Type) cells, HTRF phospho-AKT(S473)
# [4] = T47D (PI3Kα-H1047R) cells, HTRF phospho-AKT(S473)
# [5] = HTRF phospho-AKT(S473), SKBR3 (PI3Kα-Wild Type) cells
# [6] = HTRF phospho-AKT(S473), T47D (PI3Kα-H1047R) cells
"pIC50 [1, 3]","pIC50 [2, 4]",SMILES,further results
≤ 5.30,> 6.60,"Cc1cc([C@@H](C)Nc2ccc(Cl)nc2C(=O)NS(C)(=O)=O)c2nc(N3CCC(n4cc(-c5cnc(C)cn5)cn4)CC3)n(C)c(=O)c2c1 [Compound 270, (R)-6-chloro-3-((1-(3,6-dimethyl-2-(4-(4-(5-methylpyrazin-2-yl)-1H-pyrazol-1-yl)piperidin-1-yl)-4-oxo-3,4-dihydroquinazolin-8-yl)ethyl)amino)-N-(methylsulfonyl) picolinamide]",–
–,–,"Cc1cc([C@@H](C)Nc2ccc(Cl)nc2C(=O)NS(C)(=O)=O)c2nc(-c3ccc4nn(-c5ncccn5)cc4c3)n(C)c(=O)c2c1 [Compound 850, (R)-6-chloro-3-((1-(3,6-dimethyl-4-oxo-2-(2-(pyrimidin-2-yl)-2H-indazol-5-yl)-3,4-dihydroquinazolin-8-yl)ethyl)amino)-N-(methylsulfonyl) picolinamide]","pIC50 ([1]; SKBR3 (PI3Kα-Wild Type) cell line, phospho-AKT(S473) HTRF): 5.30 to 6.00; pIC50 ([2]; T47D (PI3Kα-H1047R) cell line, phospho-AKT(S473) HTRF): > 6.60"
5.30 to 6.00,> 6.60,"Cc1cc([C@@H](C)Nc2ccc(Cl)nc2C(=O)NS(C)(=O)=O)c2nc(-c3cnn(C)c3)n(C)c(=O)c2c1 [Compound 288, (R)-6-chloro-3-((1-(3,6-dimethyl-2-(1-methyl-1H-pyrazol-4-yl)-4-oxo-3,4-dihydroquinazolin-8-yl)ethyl)amino)-N-(methylsulfonyl) picolinamide]",–
5.30 to 6.00,> 6.60,"Cc1cc([C@@H](C)Nc2ccc(Cl)nc2C(=O)NS(C)(=O)=O)c2nc(N3CCC(c4ccc(N(C)C)nc4)CC3)n(C)c(=O)c2c1 [Compound 242, (R)-6-chloro-3-((1-(2-(4-(6-(dimethylamino)pyridin-3-yl)piperidin-1-yl)-3,6-dimethyl-4-oxo-3,4-dihydroquinazolin-8-yl)ethyl)amino)-N-(methylsulfonyl) picolinamide]",–
–,–,"COc1cc(N2C[C@@H]3C[C@H]2CN3c2nc3c([C@@H](C)Nc4ccc(Cl)nc4C(=O)NS(C)(=O)=O)cc(C)cc3c(=O)n2C)ccn1 [Compound 637, 6-chloro-3-(((R)-1-(2-((1S,4S)-5-(2-methoxypyridin-4-yl)-2,5-diazabicyclo [2.2.1]heptan-2-yl)-3,6-dimethyl-4-oxo-3,4-dihydroquinazolin-8-yl)ethyl)amino)-N-(methylsulfonyl) picolinamide]","pIC50 [1, 5]: ≤ 5.30; pIC50 [2, 6]: 6.30 to 6.60"
–,–,"Cc1cc([C@@H](C)Nc2ccc(Cl)nc2C(=O)NS(C)(=O)=O)c2nc(N3CCC(c4nccc(C)n4)CC3)n(C)c(=O)c2c1 [Compound 468, (R)-6-chloro-3-((1-(3,6-dimethyl-2-(4-(4-methylpyrimidin-2-yl)piperidin-1-yl)-4-oxo-3,4-dihydroquinazolin-8-yl)ethyl)amino)-N-(methylsulfonyl) picolinamide]","pIC50 [1, 5]: ≤ 5.30; pIC50 [2, 6]: > 6.60"
5.30 to 6.00,> 6.60,"Cc1cc([C@@H](C)Nc2ccc(Cl)nc2C(=O)NS(C)(=O)=O)c2nc(-c3ccc(O[C@H]4CCN(C)CC4(F)F)nc3)n(C)c(=O)c2c1 [Compound 281, 6-chloro-3-(((R)-1-(2-(6-(((S)-3,3-difluoro-1-methylpiperidin-4-yl)oxy)pyridin-3-yl)-3,6-dimethyl-4-oxo-3,4-dihydroquinazolin-8-yl)ethyl)amino)-N-(methylsulfonyl) picolinamide]",–
–,–,"Cc1cc([C@@H](C)Nc2ccc(Cl)nc2C(=O)NS(C)(=O)=O)c2nc(N3C[C@@H]4[C@H](C3)[C@H]4c3nn(C)cc3F)n(C3CC3)c(=O)c2c1 [Compound 466, 6-chloro-3-(((R)-1-(3-cyclopropyl-2-((1R,5S,6R)-6-(4-fluoro-1-methyl-1H-pyrazol-3-yl)-3-azabicyclo[3.1.0]hexan-3-yl)-6-methyl-4-oxo-3,4-dihydroquinazolin-8-yl)ethyl)amino)-N-(methylsulfonyl) picolinamide]","pIC50 [1, 5]: ≤ 5.30; pIC50 [2, 6]: 6.30 to 6.60"
5.30 to 6.00,> 6.60,"Cc1cc([C@@H](C)Nc2ccc(Cl)nc2C(=O)NS(C)(=O)=O)c2nc(C3CCN(c4ccn(C)n4)CC3)n(C)c(=O)c2c1 [Compound 223, (R)-6-chloro-3-((1-(3,6-dimethyl-2-(1-(1-methyl-1H-pyrazol-3-yl)piperidin-4-yl)-4-oxo-3,4-dihydroquinazolin-8-yl)ethyl)amino)-N-(methylsulfonyl) picolinamide]",–
5.30 to 6.00,> 6.60,"Cc1cc([C@@H](C)Nc2ccc(Cl)nc2C(=O)NS(C)(=O)=O)c2nc(N3C[C@@H]4[C@H](C3)[C@H]4c3cnn(C)c3)n(C)c(=O)c2c1 [Compound 336, 6-chloro-3-(((R)-1-(3,6-dimethyl-2-((1R,5S,6S)-6-(1-methyl-1H-pyrazol-4-yl)-3-azabicyclo[3.1.0]hexan-3-yl)-4-oxo-3,4-dihydroquinazolin-8-yl)ethyl)amino)-N-(methylsulfonyl) picolinamide]",–
≤ 5.30,5.30 to 6.00,"Cc1cc([C@@H](C)Nc2ccc(Cl)nc2C(=O)NS(C)(=O)=O)c2nc(N3Cc4n[nH]c(N)c4C3)n(C)c(=O)c2c1 [Compound 148, (R)-3-((1-(2-(3-amino-2,6-dihydropyrrolo[3,4-c]pyrazol-5(4H)-yl)-3,6-dimethyl-4-oxo-3,4-dihydroquinazolin-8-yl)ethyl)amino)-6-chloro-N-(methylsulfonyl) picolinamide]",–
–,–,"Cc1cc([C@@H](C)Nc2ccc(Cl)nc2C(=O)NS(C)(=O)=O)c2nc(N3CCN(c4ncc(C#N)cn4)CC3)n(C)c(=O)c2c1 [Compound 531, (R)-6-chloro-3-((1-(2-(4-(5-cyanopyrimidin-2-yl)piperazin-1-yl)-3,6-dimethyl-4-oxo-3,4-dihydroquinazolin-8-yl)ethyl)amino)-N-(methylsulfonyl) picolinamide]","pIC50 [1, 5]: 5.30 to 6.00; pIC50 [2, 6]: > 6.60"
5.30 to 6.00,> 6.60,"Cc1cc([C@@H](C)Nc2ccc(Cl)nc2C(=O)NS(C)(=O)=O)c2nc(C3CCN(c4ccc(C#N)cn4)CC3)n(C)c(=O)c2c1 [Compound 186, (R)-6-chloro-3-((1-(2-(1-(5-cyanopyridin-2-yl)piperidin-4-yl)-3,6-dimethyl-4-oxo-3,4-dihydroquinazolin-8-yl)ethyl)amino)-N-(methylsulfonyl) picolinamide]",–
≤ 5.30,6.30 to 6.60,"Cc1cc([C@@H](C)Nc2ccc(Cl)nc2C(=O)NS(C)(=O)=O)c2nc(N3CCC(n4cc(-c5ccccc5)cn4)CC3)n(C)c(=O)c2c1 [Compound 235, (R)-6-chloro-3-((1-(3,6-dimethyl-4-oxo-2-(4-(4-phenyl-1H-pyrazol-1-yl)piperidin-1-yl)-3,4-dihydroquinazolin-8-yl)ethyl)amino)-N-(methylsulfonyl) picolinamide]",–
≤ 5.30,> 6.60,"Cc1cc([C@@H](C)Nc2ccc(Cl)nc2C(=O)NS(C)(=O)=O)c2nc(-c3ccc(N4CC5CCC(C4)C5O)nc3)n(C)c(=O)c2c1 (stereo partly drawn) [Compound 305, 6-chloro-3-(((1R)-1-(2-(6-(8-hydroxy-3-azabicyclo[3.2.1]octan-3-yl)pyridin-3-yl)-3,6-dimethyl-4-oxo-3,4-dihydroquinazolin-8-yl)ethyl)amino)-N-(methylsulfonyl) picolinamide]",–

SMILES,"pIC50 [1, 3]","pIC50 [2, 4]",further results
"Cc1cc([C@@H](C)Nc2ccc(Cl)nc2C(=O)NS(C)(=O)=O)c2nc(N3[C@@H]4CC[C@H]3C[C@H](c3cnn(C)c3)C4)n(C)c(=O)c2c1 [Compound 298, 6-chloro-3-(((R)-1-(3,6-dimethyl-2-((1R,3S,5S)-3-(1-methyl-1H-pyrazol-4-yl)-8-azabicyclo[3.2.1]octan-8-yl)-4-oxo-3,4-dihydroquinazolin-8-yl)ethyl)amino)-N-(methylsulfonyl) picolinamide]",≤ 5.30,> 6.60,–
